According to ChEMBL document CHEMBL1201862, “PubChem BioAssay data set” (2004):
The source made the active and inactive calls.

What was measured:
[1] = target: T1, RNA-binding protein pos-1 (Caenorhabditis elegans, UniProt G5EF15); test: inhibitors of POS-1/mex-3 RNA binding, dose response, biochemical, fluorescence polarization (AID 1964);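 also: purified POS-1 fused to maltose binding protein made in E. coli; potency of compounds blocking POS-1 binding to fluorescent RNA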
T1 sequence (G5EF15 whole entry): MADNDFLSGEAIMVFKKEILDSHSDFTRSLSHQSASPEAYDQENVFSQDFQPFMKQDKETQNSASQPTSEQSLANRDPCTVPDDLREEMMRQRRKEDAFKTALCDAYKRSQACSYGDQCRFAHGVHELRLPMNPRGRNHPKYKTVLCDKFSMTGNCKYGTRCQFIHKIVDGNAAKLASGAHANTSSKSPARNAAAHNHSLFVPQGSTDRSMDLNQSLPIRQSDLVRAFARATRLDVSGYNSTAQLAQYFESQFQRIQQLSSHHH

[2] = target: T2, Zinc finger protein mex-5 (Caenorhabditis elegans, UniProt Q9XUB2); test: MEX-5/TCR-2 RNA interaction inhibitors, dose response, biochemical, C. elegans, fluorescence polarization (AID 1960)
T2 sequence (Q9XUB2 whole entry): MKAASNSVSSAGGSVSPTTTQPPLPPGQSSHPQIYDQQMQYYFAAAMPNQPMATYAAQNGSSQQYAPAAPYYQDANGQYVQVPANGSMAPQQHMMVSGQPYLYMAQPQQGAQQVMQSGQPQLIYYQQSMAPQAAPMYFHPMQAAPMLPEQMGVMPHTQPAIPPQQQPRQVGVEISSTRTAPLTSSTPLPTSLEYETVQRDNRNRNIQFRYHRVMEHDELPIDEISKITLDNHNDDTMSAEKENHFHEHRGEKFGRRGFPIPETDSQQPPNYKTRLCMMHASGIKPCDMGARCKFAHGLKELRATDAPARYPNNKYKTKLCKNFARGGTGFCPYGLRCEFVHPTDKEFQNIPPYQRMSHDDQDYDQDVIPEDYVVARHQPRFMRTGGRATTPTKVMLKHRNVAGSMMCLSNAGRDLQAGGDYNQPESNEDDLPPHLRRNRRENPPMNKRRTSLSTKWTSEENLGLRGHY

[3] = target: T3, Heat shock factor protein 1 (Mus musculus, UniProt P38532); test: HSF1 potentiators in luciferase reporter cells, confirmation, cell-based, NIH3T3, luminescence, dose retest (AID 435004); type: functional;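 also: stress induced by proteasome inhibitor MG132 added 30 min after compound; luciferase reporter driven by HSF1 response element in NIH3T3 cells; actives raise luminescence as potentiators of the MG132 stress response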
T3 sequence (P38532 whole entry): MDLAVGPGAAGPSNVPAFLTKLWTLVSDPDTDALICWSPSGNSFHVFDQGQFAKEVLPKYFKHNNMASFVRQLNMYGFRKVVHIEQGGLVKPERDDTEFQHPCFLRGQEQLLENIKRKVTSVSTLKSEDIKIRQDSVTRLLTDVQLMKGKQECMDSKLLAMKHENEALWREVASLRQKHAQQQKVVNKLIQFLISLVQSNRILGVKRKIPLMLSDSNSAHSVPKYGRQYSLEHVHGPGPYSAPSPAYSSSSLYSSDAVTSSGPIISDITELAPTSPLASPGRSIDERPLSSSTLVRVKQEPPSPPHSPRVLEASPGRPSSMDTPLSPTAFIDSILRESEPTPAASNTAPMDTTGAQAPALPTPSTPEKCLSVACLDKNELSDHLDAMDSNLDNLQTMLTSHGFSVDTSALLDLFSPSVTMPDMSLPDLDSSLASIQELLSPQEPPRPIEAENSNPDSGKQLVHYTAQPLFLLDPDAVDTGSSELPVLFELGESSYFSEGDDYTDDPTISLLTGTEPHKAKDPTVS

[4] = target: T4, Corticotropin-releasing factor receptor 2/Corticotropin-releasing factor-binding protein (Homo sapiens, UniProt P24387+Q13324); test: activators of CRF receptor 2 with binding protein – uHTS hits, confirmation (AID 602473); type: functional; settings: read-out: EC50_Mean
T4 sequence (Q13324 whole entry): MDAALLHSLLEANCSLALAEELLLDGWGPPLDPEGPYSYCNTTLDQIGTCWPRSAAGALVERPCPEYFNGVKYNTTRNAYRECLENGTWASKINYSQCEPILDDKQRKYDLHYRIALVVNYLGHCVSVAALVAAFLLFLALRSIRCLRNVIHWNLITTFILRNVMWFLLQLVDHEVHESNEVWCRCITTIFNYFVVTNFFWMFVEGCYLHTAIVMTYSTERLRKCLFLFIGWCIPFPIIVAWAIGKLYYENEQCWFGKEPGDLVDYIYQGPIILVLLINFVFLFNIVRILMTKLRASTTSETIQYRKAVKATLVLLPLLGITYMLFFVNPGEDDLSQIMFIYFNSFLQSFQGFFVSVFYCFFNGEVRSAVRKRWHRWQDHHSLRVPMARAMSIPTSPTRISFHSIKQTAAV
T4 sequence (P24387 whole entry): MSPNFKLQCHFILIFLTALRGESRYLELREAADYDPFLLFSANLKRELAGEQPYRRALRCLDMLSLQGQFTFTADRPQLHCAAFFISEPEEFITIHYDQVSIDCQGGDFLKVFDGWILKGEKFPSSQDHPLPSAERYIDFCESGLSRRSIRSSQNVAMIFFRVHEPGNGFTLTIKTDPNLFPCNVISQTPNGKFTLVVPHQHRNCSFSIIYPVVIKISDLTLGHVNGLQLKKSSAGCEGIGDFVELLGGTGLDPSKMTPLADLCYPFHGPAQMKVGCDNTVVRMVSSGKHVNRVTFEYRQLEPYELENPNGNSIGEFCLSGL

[5] = inhibitors of intracellular T. cruzi replication, confirmation, NIH3T3 host cells, beta-gal luminescence (AID 2044); type: functional, cell-based;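 also: intracellular parasites grown in NIH/3T3 mouse fibroblasts as host cells; luminescent beta-galactosidase reporter signal from transgenic T. cruzi replicating inside host cells; inhibitors lower the luminescence signal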
[6] = cytotoxicity toward NIH3T3 fibroblasts, dose response, counter-screen, cell-based, ATP luminescence, mouse fibroblasts (AID 2010); type: functional;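 also: cells exposed to compound for about 90 hours before reading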
[7] = system: Streptococcus sp. 'group A'; test: growth inhibition of control SK(-) GAS strain, dose response, counter-screen for streptokinase expression inhibitor project, luminescence, kanamycin, BacTiterGlo, confirmation (AID 1900); type: functional, organism-based
[8] = system: Streptococcus; test: Group A Streptococcus viability loss, dose response, counter-screen for streptokinase expression inhibitor project, luminescence, BacTiterGlo (AID 1915); type: functional, organism-based;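 also: potency for reduction of bacterial viability or growth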
[9] = target: Cytochrome P450 2C19 (Homo sapiens, UniProt P33261); test: Cytochrome panel assay with activity outcomes. Panel member name: p450-cyp2c19 Compounds with AC50 equal or less than 10 uM are considered active; type: functional; settings: read-out: AC50
[10] = target: Cytochrome P450 3A4 (Homo sapiens, UniProt P08684);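 also: CYP3A4 tested as one member of a cytochrome P450 panel screen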
Cytochrome P450 3A4, sequence (P08684 whole entry): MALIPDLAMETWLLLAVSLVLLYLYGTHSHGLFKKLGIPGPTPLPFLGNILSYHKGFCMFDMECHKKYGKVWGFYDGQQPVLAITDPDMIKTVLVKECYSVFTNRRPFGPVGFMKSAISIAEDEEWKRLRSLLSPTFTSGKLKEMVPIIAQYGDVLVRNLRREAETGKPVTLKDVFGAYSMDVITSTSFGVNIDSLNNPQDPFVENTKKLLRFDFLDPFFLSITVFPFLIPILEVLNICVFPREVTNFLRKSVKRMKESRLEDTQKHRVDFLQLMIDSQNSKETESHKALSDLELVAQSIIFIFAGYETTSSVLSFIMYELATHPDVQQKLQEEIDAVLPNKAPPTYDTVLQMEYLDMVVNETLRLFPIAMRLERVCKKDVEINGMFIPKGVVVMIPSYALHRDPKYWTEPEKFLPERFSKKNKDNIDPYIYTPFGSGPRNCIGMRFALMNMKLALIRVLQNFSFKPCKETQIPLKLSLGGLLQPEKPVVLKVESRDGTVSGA

Cytochrome P450 2C19, sequence (P33261 whole entry): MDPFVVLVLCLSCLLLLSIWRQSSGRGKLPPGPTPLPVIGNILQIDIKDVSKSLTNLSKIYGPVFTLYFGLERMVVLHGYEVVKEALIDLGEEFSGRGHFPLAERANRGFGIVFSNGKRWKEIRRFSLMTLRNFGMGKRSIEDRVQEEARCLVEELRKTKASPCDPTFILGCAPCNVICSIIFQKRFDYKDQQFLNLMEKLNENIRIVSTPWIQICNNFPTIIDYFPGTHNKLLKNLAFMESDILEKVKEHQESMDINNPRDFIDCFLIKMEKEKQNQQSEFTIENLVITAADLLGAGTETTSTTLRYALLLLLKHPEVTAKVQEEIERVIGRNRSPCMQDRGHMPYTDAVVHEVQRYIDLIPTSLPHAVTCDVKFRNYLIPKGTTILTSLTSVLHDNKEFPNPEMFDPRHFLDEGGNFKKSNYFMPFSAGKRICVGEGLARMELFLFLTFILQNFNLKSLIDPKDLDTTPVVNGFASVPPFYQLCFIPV

Cc1cc(/C=C2\C(=O)NC(=O)N(c3ccc(F)cc3)C2=O)c(C)n1-c1cccc(C(=O)O)c1
EC50 [1]: > 300 µM (not active) | EC50 [2]: > 300 µM (not active)

COc1ccc(S(=O)(=O)N(C)CC(=O)N2CCC(C(N)=O)CC2)cc1Cl
EC50 [3]: > 260 µM (inactive)

O=C(CCN1C(=O)c2ccccc2C1=O)C1=NN[C@@H]2C(=O)N(c3ccc(F)cc3)C(=O)[C@H]12
EC50 [3]: > 260 µM (inactive)

Cc1cccc(NC(=O)C(C)N2C(=O)C3C4CC(C(Br)C4Br)C3C2=O)c1 (stereo unspecified)
EC50 [4]: 9.65 µM (active)

COc1ccc(-c2nn(-c3ccccc3)cc2CNC(=O)c2cccc([N+](=O)[O-])c2)cc1
EC50 [5]: 1.75 µM (active) | EC50 [6]: > 60 µM (not active)

Cc1ccsc1C(=O)C1CCCN(Cc2cnc(N(C)C)s2)C1 (stereo unspecified)
EC50 [5]: 0.203 µM (active) | EC50 [6]: > 60 µM (not active)

COc1cc2oc3ccc(C#Cc4ccc(N)cc4)cc3c(=O)c2cc1OC
EC50 [7]: 1.18 µM (active) | EC50 [8]: 1.75 µM (active)

Cc1ccnc(SCC(=O)c2ccc(Br)cc2)c1C#N
EC50 [5]: 0.932 µM (active) | EC50 [6]: > 30 µM (not active)

N#Cc1cc(NC(=O)c2ccc(F)cc2)c(O)n2c1nc1ccccc12
EC50 [1]: 21.7 µM (inconclusive) | EC50 [2]: 35 µM (active)

Cc1cc(C)cc(NC(=O)CN(C)S(=O)(=O)c2c[nH]cn2)c1
EC50 [3]: > 260 µM (inactive)

COCCN1Cc2cccc(C(=O)Nc3cc(OC)ccc3OC)c2C1=O
EC50 [4]: > 53 µM (inactive)

S=C1NC2(CCS1)Oc1ccccc1C1CC(c3ccccc3)=NN12 (stereo unspecified)
EC50 [1]: > 300 µM (not active) | EC50 [2]: > 300 µM (not active)

CN(C)c1ncc2nc(-c3ccccc3)c(=O)n(C3CC3)c2n1
AC50 [9]: 39.8 µM (inconclusive)

CCN(Cc1ccccc1)S(=O)(=O)c1cc(C(=O)NCC2CCCCC2)ccc1OC
EC50 [3]: > 260 µM (inactive)

COC(=O)c1cc(OC)c(OC)cc1N=C(S)N1CCCC1
EC50 [3]: > 260 µM (inactive)

COc1ccc(NC(=O)C2CC(=O)N=C(Nc3cccc(C)c3)N2)cc1 (stereo unspecified)
EC50 [3]: > 260 µM (inactive)

CCCCOC(=O)CCc1c(C)n[nH]c1C
EC50 [3]: > 260 µM (inactive)

O=C(NNc1cccc(Cl)n1)Nc1ccccc1Cl
AC50 [9]: 6.31 µM (inconclusive)

CCCc1nnc(SCC(=O)N2CCCCC2C)n1CC1CCCO1 (stereo unspecified)
AC50 [9]: 25.1 µM (inconclusive)

COc1ccc(/C=N/N=C2/CC(C)(C)Cc3nnc(O)cc32)cc1
EC50 [1]: 41.4 µM (active) | EC50 [2]: 38.1 µM (active)

COc1ccc2cc(/C(C)=N/NC(=S)Nc3cc(S(=O)(=O)N4CCOCC4)ccc3N3CCOCC3)ccc2c1
EC50 [5]: 0.572 µM (active) | EC50 [6]: > 60 µM (not active)

COc1ccc(C2C(C#N)=C(/N=C/N3CCN(C)CC3)OC3=C2C(=O)CC(C)(C)C3)cc1 (stereo unspecified)
EC50 [1]: > 300 µM (not active) | EC50 [2]: > 300 µM (not active)

CN1CCN(C2=Cc3ccccc3Oc3ccc(Cl)cc32)CC1
AC50 [10]: 31.6 µM (inconclusive)

CC1(C)S[C@@H]2[C@H](NC(=O)Cc3ccccc3)C(=O)N2[C@H]1C(=O)O [PENICILLIN G]
EC50 [7]: < 0.06 µM (active) | EC50 [8]: < 0.06 µM (active)

CNNCc1ccc(C(=O)NC(C)C)cc1 [PROCARBAZINE]
AC50 [9]: 5.01 µM (inconclusive)
